Experimental data taken from patent US11254671B2, “Chemical compounds” (GLAXOSMITHKLINE INTELLECTUAL PROPERTY DEVELOPMENT LIMITED, priority 2017, dated 2022).

These molecules were tested on type I collagen deposition in primary lung fibroblasts (assay: Highthroughput type I collagen deposition (scar-in-a-jar) high content screening assay). Settings: Homo sapiens, Primary lung fibroblast, 72 h, human pulmonary fibroblasts, TGF-β 1 ng/ml, Ficoll crowding, mean of multiple experiments, read-out: mean pIC50, inhibition of type I collagen deposition (converted).
Type: cell-based
Method: Example 53 Highthroughput Type I Collagen Deposition (Scar-in-a-Jar) High Content Screening Assay
Highthroughput, cellular type I collagen deposition was measured by adapting a published method; scar-in-a-jar (Chen et al., 2009) to primary lung fibroblasts derived from human tissue and combining with high content analysis to permit fluorescent quantification of collagen deposited in the extracellular matrix (ECM). The human biological samples were sourced ethically and their research use was in accord with the terms of the informed consents
Test compounds were dissolved in 100% DMSO to give 10 mM (stocks) and further diluted to give half log dilutions to generate an 11 point concentration response curve. 1 ul was transferred to 384-well plates (Greiner Group, Kremsmunster, Austria, Catalogue No Greine 781280r).
Human pulmonary fibroblasts were maintained in DMEM media (Gibco, Catalogue No 21969) supplemented with 4 mM L-glutamine (Gibco Catalogue No 25030-024) and 10% heat inactivated FBS (Gibco, Catalogue No 10099-141) at 37° C. in 10% CO2. Cells were harvested and resuspended at 4×10^6 cells/ml in a T175 cell culture flask (BD Falcom, Catalogue No: 353112) containing 50 mL of culture media. After 4 days 37° C. in 10% CO2, cells were harvested and seeded at 4000 cells per well (50 μL/well) into 384-well plates (BD Falcon, Catalogue No 353962Greiner) in assay media (0.4% heat inactivated FBS, 4 mM L-glutamine). Plates were sealed with breathable seals (Sigma, Catalogue No. BEM-1). Assay plates were incubated for 72 h at 37° C. in 10% CO2.
Assay media was supplemented with 112.5 mg/ml Ficoll 70 (Sigma, Catalogue No F2878), 75 mg/ml Ficoll 400 (Sigma, Catalogue No F4375) and 50 μg/ml ascorbic acid (Sigma, Catalogue No A8960). 30 μL assay media were added to 1 μl compound (37 μM compound concentration in 1% DMSO). Diluted compounds (10 μL) were transferred to plates containing cells and incubated for 3 h at 37° C. in 10% CO2. Transforming growth factor (TGF)-β (R&D systems, Catalogue No 100-B/CF) was reconstituted to give 10 μg/mL (stock) and further diluted in assay media containing Ficoll and ascorbic acid (1 in 3333). TGF-β was added to cell plates (1 ng/ml final) and cells incubated for 72 h at 37° C. in 10% CO2.
Media was aspirated from cells and 30 μL/well 100% ice-cold methanol added and incubated at RT for 5 min to fix cells. Methanol was aspirated and cells washed with PBS (3×). To block and permeabilise, cells were incubated with PBS containing 1% BSA and 0.1% Triton X 100 for 20 min, followed by PBS wash (3×). Cells were incubated with mouse anti human type I collagen monoclonal antibody (Sigma, Catalogue No C2456) diluted 1:1000 in PBS for 24 h at 4° C. Cells were washed with PBS containing 0.1% Tween-20 (3×) and incubated with secondary alexa fluor 488 goat-anti-mouse antibody (Invitrogen, Catalogue No A11001, 1 in 500 in PBS) and Hoechst 33342 (Sigma, Catalogue No H21492), 1 in 1000 in PBS) for 1 h at RT, prior to washing with PBS containing 0.1% Tween (×4).
Type I collagen immunoreactivity was detected using the INCell 2000 Analyzer (GE Healthcare, INcell 2000) set to excitation and emission wavelengths for DAPI and FITC with laser focus and exposure adjusted to appropriate levels. Images were imported and analysed using Columbus software (Perkin Elmer) and computational algorithms to quantify “total collagen area” and “cell count”.
Data analysis was performed by determining % inhibition values for test compounds relative to the minimum (media only) and maximum responses (TGF-βstimulation) with non-linear regression analysis to determine IC50 values for test compounds.

| Structure (SMILES) | IC50 [nM] |
| --- | --- |
| CNCc1cc2nc(-c3cc(C(C)(C)S(C)(=O)=O)cc(N4CCOC[C@@H]4C)n3)ccc2[nH]1 [Example 2, (S)—N-methyl-1-(5-(6-(3-methylmorpholino)-4-(2-(methylsulfonyl)propan-2-yl)pyridin-2-yl)-1H-pyrrolo[3,2-b]pyridin-2-yl)methanamine] | 39.8 to 1000 |
| CNCc1cc2nc(-c3cc(C(C)(C)S(C)(=O)=O)cc(N4[C@@H]5CC[C@H]4COC5)n3)ccc2[nH]1 [Example 3, 1-(5-(6-((1R,5S)-3-oxa-8-azabicyclo[3.2.1]octan-8-yl)-4-(2-(methylsulfonyl)propan-2-yl)pyridin-2-yl)-1H-pyrrolo[3,2-b]pyridin-2-yl)-N-methylmethanamine] | 39.8 to 1000 |
| CNCc1cc2nc(-c3cc(C(C)(C)S(C)(=O)=O)cc(N4CC5CCC(C4)O5)n3)ccc2[nH]1 [Example 4, 1-(5-(6-(8-oxa-3-azabicyclo[3.2.1]octan-3-yl)-4-(2-(methylsulfonyl)propan-2-yl)pyridin-2-yl)-1H-pyrrolo[3,2-b]pyridin-2-yl)-N-methylmethanamine] | 39.8 to 1000 |
| CNCc1cc2nc(-c3cc(C(C)(C)S(C)(=O)=O)cc(N4C5CCCC4COC5)n3)ccc2[nH]1 [Example 5, 1-(5-(6-(3-oxa-9-azabicyclo[3.3.1]nonan-9-yl)-4-(2-(methylsulfonyl)propan-2-yl)pyridin-2-yl)-1H-pyrrolo[3,2-b]pyridin-2-yl)-N-methylmethanamine] | 39.8 to 1000 |
| CNCc1cc2nc(-c3cc(CS(C)(=O)=O)cc(N4CCOC[C@@H]4C)n3)ccc2[nH]1 [Example 6, (S)—N-methyl-1-(5-(6-(3-methylmorpholino)-4-((methylsulfonyl)methyl)pyridin-2-yl)-1H-pyrrolo[3,2-b]pyridin-2-yl)methanamine] | 39.8 to 1000 |
| CCS(=O)(=O)C(C)(C)c1cc(-c2ccc3[nH]c(CNC)cc3n2)nc(N2CCOC[C@@H]2C)c1 [Example 7, (S)-1-(5-(4-(2-(ethylsulfonyl)propan-2-yl)-6-(3-methylmorpholino)pyridin-2-yl)-1H-pyrrolo[3,2-b]pyridin-2-yl)-N-methylmethanamine] | 39.8 to 1000 |
| CC[C@H]1COCCN1c1cc(C(C)(C)S(=O)(=O)C2CC2)cc(-c2ccc3[nH]c(CNC)cc3n2)n1 [Example 9, (S)-1-(5-(4-(2-(cyclopropylsulfonyl)propan-2-yl)-6-(3-ethylmorpholino)pyridin-2-yl)-1H-pyrrolo[3,2-b]pyridin-2-yl)-N-methylmethanamine] | 39.8 to 100 |
| CC[C@H]1COCCN1c1cc(CS(=O)(=O)C2CC2)cc(-c2ccc3[nH]c(CNC)cc3n2)n1 [Example 10, (S)-1-(5-(4-((cyclopropylsulfonyl)methyl)-6-(3-ethylmorpholino)pyridin-2-yl)-1H-pyrrolo[3,2-b]pyridin-2-yl)-N-methylmethanamine] | 39.8 to 1000 |
| CC[C@H]1COCCN1c1cc(C2(S(=O)(=O)C3CC3)CC2)cc(-c2ccc3[nH]c(CNC)cc3n2)n1 [Example 11, (S)-1-(5-(4-(1-(cyclopropylsulfonyl)cyclopropyl)-6-(3-ethylmorpholino)pyridin-2-yl)-1H-pyrrolo[3,2-b]pyridin-2-yl)-N-methylmethanamine] | 39.8 to 100 |
| CNCc1cc2nc(-c3cc(C(F)(F)S(C)(=O)=O)cc(N4CCOC[C@@H]4C)n3)ccc2[nH]1 [Example 12, (S)-1-(5-(4-(difluoro(methylsulfonyl)methyl)-6-(3-methylmorpholino)pyridin-2-yl)-1H-pyrrolo[3,2-b]pyridin-2-yl)-N-methylmethanamine] | 39.8 to 1000 |
| CC[C@H]1COCCN1c1cc(CS(C)(=O)=O)cc(-c2ccc3[nH]c(CNC)cc3n2)n1 [Example 13, (S)-1-(5-(6-(3-ethylmorpholino)-4-((methylsulfonyl)methyl)pyridin-2-yl)-1H-pyrrolo[3,2-b]pyridin-2-yl)-N-methylmethanamine] | 39.8 to 1000 |
| CC[C@H]1COCCN1c1cc(CS(=O)(=O)N(C)C)cc(-c2ccc3[nH]c(CNC)cc3n2)n1 [Example 17, (S)-1-(2-(3-ethylmorpholino)-6-(2-((methylamino)methyl)-1H-pyrrolo[3,2-b]pyridin-5-yl)pyridin-4-yl)-N,N-dimethylmethanesulfonamide] | 39.8 to 1000 |
| CC[C@H]1COCCN1c1cc(C2(S(C)(=O)=O)CC2)cc(-c2ccc3[nH]c(CNC)cc3n2)n1 [Example 19, [(5-{6-[(3S)-3-ethylmorpholin-4-yl]-4-(1-methanesulfonylcyclopropyl)pyridin-2-yl}-1H-pyrrolo[3,2-b]pyridin-2-yl)methyl](methyl)amine] | 39.8 to 1000 |
| CNCc1cc2nc(-c3cc(C4(S(C)(=O)=O)CC4)cc(N4CCOC[C@@H]4C)n3)ccc2[nH]1 [Example 20, ({5-[4-(1-methanesulfonylcyclopropyl)-6-[(3S)-3-methylmorpholin-4-yl]pyridin-2-yl]-1H-pyrrolo[3,2-b]pyridin-2-yl}methyl)(methyl)amine] | 39.8 to 1000 |
| CC[C@H]1COCCN1c1cc(C(C)(C)S(C)(=O)=O)cc(-c2ccc3[nH]c(CN)cc3n2)n1 [Example 21, 1-(5-{6-[(3S)-3-ethylmorpholin-4-yl]-4-(2-methanesulfonylpropan-2-yl)pyridin-2-yl}-1H-pyrrolo[3,2-b]pyridin-2-yl)methanamine] | 39.8 to 1000 |
| CC[C@H]1COCCN1c1cc(C2(S(C)(=O)=O)CCOCC2)cc(-c2ccc3[nH]c(CN)cc3n2)n1 [Example 23, 1-(5-{6-[(3S)-3-ethylmorpholin-4-yl]-4-(4-methanesulfonyloxan-4-yl)pyridin-2-yl}-1H-pyrrolo[3,2-b]pyridin-2-yl)methanamine] | 39.8 to 1000 |
| CNCc1cc2nc(-c3cc(CS(C)(=O)=O)cc(N4CC5CCC(C4)O5)n3)ccc2[nH]1 [Example 25, ({5-[4-(methanesulfonylmethyl)-6-{8-oxa-3-azabicyclo[3.2.1]octan-3-yl}pyridin-2-yl]-1H-pyrrolo[3,2-b]pyridin-2-yl}methyl)(methyl)amine] | 39.8 to 1000 |
| CC[C@H]1COCCN1c1cc(C(C)(C)S(N)(=O)=O)cc(-c2ccc3[nH]c(CNC)cc3n2)n1 [Example 28, 2-{2-[(3S)-3-ethylmorpholin-4-yl]-6-{2-[(methylamino)methyl]-1H-pyrrolo[3,2-b]pyridin-5-yl}pyridin-4-yl}propane-2-sulfonamide] | 39.8 to 1000 |
| CC[C@H]1COCCN1c1cc(CS(=O)(=O)NC)cc(-c2ccc3[nH]c(CNC)cc3n2)n1 [Example 30, 1-{2-[(3S)-3-ethylmorpholin-4-yl]-6-{2-[(methylamino)methyl]-1H-pyrrolo[3,2-b]pyridin-5-yl}pyridin-4-yl}-N-methylmethanesulfonamide] | 39.8 to 1000 |
| CC[C@H]1COCCN1c1cc(C2(S(=O)(=O)N(C)C)CCOCC2)cc(-c2ccc3[nH]c(CNC)cc3n2)n1 [Example 31, 4-{2-[(3S)-3-ethylmorpholin-4-yl]-6-{2-[(methylamino)methyl]-1H-pyrrolo[3,2-b]pyridin-5-yl}pyridin-4-yl}-N,N-dimethyloxane-4-sulfonamide] | 39.8 to 100 |
| CC[C@H]1COCCN1c1cc(C(C)(C)S(C)(=O)=O)cc(-c2ccc3[nH]c(CO)cc3n2)n1 [Example 32] | 39.8 to 1000 |
| CC[C@H]1COCCN1c1cc(C2(S(C)(=O)=O)CCOCC2)cc(-c2ccc3[nH]c(CO)cc3n2)n1 [Example 33, (5-{6-[(3S)-3-ethylmorpholin-4-yl]-4-(4-methanesulfonyloxan-4-yl)pyridin-2-yl}-1H-pyrrolo[3,2-b]pyridin-2-yl)methanol] | 39.8 to 1000 |
